Literature values in US7442682B2, “Transepithelial delivery of peptides with incretin hormone activities” (Nitto Denko Corporation, priority 2004, dated 2008).

Tests used:
fasting blood glucose = conditions: type 2 diabetes patients, pump infusion for 6 weeks, mainly within first week
β-cells = conditions: insulinotropic effect; read-out: half-maximal effective concentration on β-cells
[1] = in vivo

| EC50 (β-cells) [nM] | half-life relative to exendin-4 [1] | Compound | lowering of fasting blood glucose (fasting blood glucose) [mM] |
| --- | --- | --- | --- |
| 0.01 |  | GLP-1: glucagon-like peptide-1, human incretin hormone | 4 to 5 |
|  | more than 10 fold | CCCCCCCCCCCCCCCC(=O)N[C@@H](CCC(=O)NCCCC[C@H](NC(=O)[C@H](C)NC(=O)[C@H](C)NC(=O)[C@H](CCC(N)=O)NC(=O)CNC(=O)[C@H](CCC(=O)O)NC(=O)[C@H](CC(C)C)NC(=O)[C@H](Cc1ccc(O)cc1)NC(=O)[C@H](CO)NC(=O)[C@H](CO)NC(=O)[C@@H](NC(=O)[C@H](CC(=O)O)NC(=O)[C@H](CO)NC(=O)[C@@H](NC(=O)[C@H](Cc1ccccc1)NC(=O)[C@@H](NC(=O)CNC(=O)[C@H](CCC(=O)O)NC(=O)[C@H](C)NC(=O)[C@@H](N)Cc1cnc[nH]1)[C@@H](C)O)[C@@H](C)O)C(C)C)C(=O)N[C@@H](CCC(=O)O)C(=O)N[C@@H](Cc1ccccc1)C(=O)N[C@H](C(=O)N[C@@H](C)C(=O)N[C@@H](Cc1c[nH]c2ccccc12)C(=O)N[C@@H](CC(C)C)C(=O)N[C@H](C(=O)N[C@@H](CCCNC(=N)N)C(=O)NCC(=O)N[C@@H](CCCNC(=N)N)C(=O)NCC(=O)O)C(C)C)[C@@H](C)CC)C(=O)O [Liraglutide] |  |
